In article PMC7126309 (Bioorganic & Medicinal Chemistry, 2010):

What follows are compounds tested against SARS-CoV 3CL^pro (Severe acute respiratory syndrome coronavirus, UniProt P0C6X7).
Assay type: biochemical

How did the Inhibition type turn out when `O=c1cc(-c2ccc(O)c(-c3c(O)cc(O)c4c(=O)cc(-c5ccc(O)cc5)oc34)c2)oc2cc(O)cc(O)c12` [Compound 9, amentoflavone] was run?
The Inhibition type was “Noncompetitive (13.8 ± 1.5)”.

With `COc1ccc(-c2cc(=O)c3c(O)cc(O)c(-c4cc(-c5cc(=O)c6c(O)cc(OC)cc6o5)ccc4OC)c3o2)cc1` [Compound 12, sciadopitysin] as the compound, how does the Inhibition type read?
The Inhibition type was “Noncompetitive (35.6 ± 1.1)”.

`COc1ccc(-c2cc(=O)c3c(O)cc(O)cc3o2)cc1-c1c(O)cc(O)c2c(=O)cc(-c3ccc(O)cc3)oc12` [Compound 10, bilobetin] was tested. Which Inhibition type did it give?
Its Inhibition type is “Noncompetitive (80.4 ± 4.0)”.

Which Inhibition type does the source give for `COc1cc(O)c2c(=O)cc(-c3ccc(OC)c(-c4c(O)cc(O)c5c(=O)cc(-c6ccc(O)cc6)oc45)c3)oc2c1` [Compound 11, ginkgetin] here?
The Inhibition type was “Noncompetitive (30.2 ± 2.6)”.
